In patent publication US20230339890A1, “AMINO ALCOHOL COMPOUNDS AND USES THEREOF” (Kineta, Inc., priority 2020, published 2023) one finds IC50 data, which are given here for 39 compounds.

The assay concerns the target Recombinant human CYP51A1 (lanosterol-14a-demethylase) (Homo sapiens (Human), UniProt Q16850). The assay is described as follows: Inhibition of CYP51A1, fluorescent substrate BOMCC. The assay is classed as biochemical. Particulars: recombinant human CYP51A1 coexpressed with CYP reductase in bacterial membranes, 8-point concentration-response, read-out: CYP51 IC50. An excerpt:
Method: Recombinant human CYP51A1 (lanosterol-14a-demethylase) enzyme was coexpressed with CYP reductase in bacterial membranes and the fluorescent substrate BOMCC (a nonnatural substrate that causes increases in fluorescence upon CYP51A1-dependent demethylation) was used to obtain 8-point dose concentration-response curves for each compound.

Recombinant human CYP51A1 (lanosterol-14a-demethylase), sequence (Q16850 whole entry): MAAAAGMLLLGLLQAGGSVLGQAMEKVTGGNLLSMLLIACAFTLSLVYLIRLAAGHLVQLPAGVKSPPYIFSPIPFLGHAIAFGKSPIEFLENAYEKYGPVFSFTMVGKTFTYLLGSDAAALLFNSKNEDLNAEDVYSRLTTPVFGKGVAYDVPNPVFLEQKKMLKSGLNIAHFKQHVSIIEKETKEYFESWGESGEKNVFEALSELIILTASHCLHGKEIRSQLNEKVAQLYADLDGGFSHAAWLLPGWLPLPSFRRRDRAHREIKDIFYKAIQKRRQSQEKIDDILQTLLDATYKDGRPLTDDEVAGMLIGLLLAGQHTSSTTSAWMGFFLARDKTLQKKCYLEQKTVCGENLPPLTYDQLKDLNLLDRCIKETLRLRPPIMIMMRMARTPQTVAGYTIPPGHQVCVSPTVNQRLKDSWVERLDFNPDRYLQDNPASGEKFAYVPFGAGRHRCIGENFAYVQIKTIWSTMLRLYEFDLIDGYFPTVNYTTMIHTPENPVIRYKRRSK

With `CCCN(C[C@@H](O)c1cccnc1)C(=O)Cc1ccc2cc(Cl)sc2c1` [compound 67, 2-(2-chlorobenzothiophen-6-yl)-N-[(2S)-2-hydroxy-2-(3-pyridyl)ethyl]-N-propyl-acetamide], the IC50 is no more than 100 nM. The value for `O=C(Cc1ccc(Cl)c(Cl)c1)N(C[C@@H](O)c1cccnc1)C1CCC1` [compound 71, N-cyclobutyl-2-(3,4-dichlorophenyl)-N-[(2S)-2-hydroxy-2-(3-pyridyl)ethyl]acetamide] was no more than 100 nM. The value for `CC(C)N(C[C@@H](O)c1cccnc1)C(=O)Cc1ccc(C(F)(F)F)nc1` [compound 72, (S)-N-(2-hydroxy-2-(pyridin-3-yl)ethyl)-N-isopropyl-2-(6-(trifluoromethyl)pyridin-3-yl)acetamide] was 100 to 1000 nM. The value for `O=C(Cc1ccc(C(F)(F)F)nc1)N(CC1COC1)C[C@@H](O)c1cccnc1` [compound 73, N-[(2S)-2-hydroxy-2-(3-pyridyl)ethyl]-N-(oxetan-3-ylmethyl)-2-[6-(trifluoromethyl)-3-pyridyl]acetamide] was 100 to 1000 nM. `O=C(Cc1ccc(C(F)(F)F)nc1)N(C[C@@H](O)c1cccnc1)C1CCC1` [compound 74, N-cyclobutyl-N-[(2S)-2-hydroxy-2-(3-pyridyl)ethyl]-2-[6-(trifluoromethyl)-3-pyridyl]acetamide]: the IC50 was no more than 100 nM. Then `COC(=O)N(CCc1ccc(C(F)(F)F)nc1)C[C@@H](O)c1cccnc1` [compound 75, Methyl N-[(2S)-2-hydroxy-2-(3-pyridyl)ethyl]-N-[2-[6-(trifluoromethyl)-3-pyridyl]ethyl]carba mate], with greater than 1000 nM; and `CC1(CN(C[C@@H](O)c2cccnc2)C(=O)Cc2ccc(C(F)(F)F)nc2)CC1` [compound 76, N-[(2S)-2-hydroxy-2-(3-pyridyl)ethyl]-N-[(1-methylcyclopropyl)methyl]-2-[6-(trifluoromethyl)-3-pyridyl]acetamide], with no more than 100 nM; and `N#Cc1ccc(CC(=O)N(C[C@@H](O)c2cccnc2)C2CCC2)cc1Cl` [compound 77, 2-(3-chloro-4-cyano-phenyl)-N-cyclobutyl-N-[(2S)-2-hydroxy-2-(3-pyridyl)ethyl]acetamide], with no more than 100 nM. For the compound `O=C(Cc1ccc(C(F)(F)F)nc1)N(C[C@@H](O)c1cccnc1)C1COC1` [compound 78, N-[(2S)-2-hydroxy-2-(3-pyridyl)ethyl]-N-(oxetan-3-yl)-2-[6-(trifluoromethyl)-3-pyridyl]acetamide], the IC50 is 100 to 1000 nM. With `O=C(Cc1ccc(C(F)(F)F)nc1)N(CC1CCOCC1)C[C@@H](O)c1cccnc1` [compound 79, N-[(2S)-2-hydroxy-2-(3-pyridyl)ethyl]-N-(tetrahydropyran-4-ylmethyl)-2-[6-(trifluoromethyl)-3-pyridyl]acetamide], the 50% inhibitory concentration (IC50) was greater than 1000 nM. The value for `N#Cc1ccc(CC(=O)N(CC2COC2)C[C@@H](O)c2cccnc2)cc1Cl` [compound 80, 2-(3-chloro-4-cyano-phenyl)-N-[(2S)-2-hydroxy-2-(3-pyridyl)ethyl]-N-(oxetan-3-ylmethyl)acetamide] was 100 to 1000 nM.

Regarding `O=C(Cc1ccc(C(F)(F)F)nc1)N(CC1CCNCC1)C[C@@H](O)c1cccnc1` [compound 81, N-[(2S)-2-hydroxy-2-(3-pyridyl)ethyl]-N-(4-piperidylmethyl)-2-[6-(trifluoromethyl)-3-pyridyl]acetamide], the IC50 is greater than 1000 nM. The value for `COC(=O)N(CCc1ccc2ccccc2c1)CC(O)c1cccnc1` (stereo not drawn) [compound 82, Methyl N-[2-hydroxy-2-(3-pyridyl)ethyl]-N-[2-(2-naphthyl)ethyl]carba mate] was 100 to 1000 nM; that for `COC(=O)N(CCc1ccc(Cl)c(Cl)c1)CC(O)c1cccnc1` (stereo not drawn) [compound 83, Methyl N-[2-(3,4-dichlorophenyl)ethyl] -N-[2-hydroxy-2-(3-pyridyl)ethyl]carbam ate] was 100 to 1000 nM; that for `O=C(Cc1ccc(C(F)(F)F)nc1)N(CC(O)c1cnccn1)C1CCC1` (stereo not drawn) [compound 85] was 100 to 1000 nM. Then `O=C(Cc1ccc(Cl)c(Cl)c1)N(C[C@@H](O)c1cccnc1)C1CC1` [compound 86, N-cyclopropyl-2-(3,4-dichlorophenyl)-N-[(2S)-2-hydroxy-2-(3-pyridyl)ethyl]acetamide], with 100 to 1000 nM; and `O=C(Cc1ccc(C(F)(F)F)nc1)N(CC1CCC1)CC(O)c1cccnn1` (stereo not drawn) [compound 87], with 100 to 1000 nM; and `Cc1ccncc1C(O)CN(CC1COC1)C(=O)Cc1ccc(C(F)(F)F)nc1` (stereo not drawn) [compound 89, N-[2-hydroxy-2-(4-methyl-3-pyridyl)ethyl] -N-(oxetan-3-ylmethyl)-2-[6-(trifluoromethyl)-3-pyridyl]acetamide], with greater than 1000 nM. With `CC(C)c1ccncc1C(O)CN(CC1COC1)C(=O)Cc1ccc(C(F)(F)F)nc1` (stereo not drawn) [compound 90, N-[2-hydroxy-2-(4-isopropyl-3-pyridyl)ethyl]-N-(oxetan-3-ylmethyl)-2-[6-(trifluoromethyl)-3-pyridyl]acetamide], the IC50 was no more than 100 nM. Then `CCC(=O)N(C[C@@H](O)c1cccnc1)C1Cc2cnc(C(F)(F)F)cc2C1` (stereo partly drawn) [compound 93, N-[(2S)-2-hydroxy-2-(3-pyridyl)ethyl]-N-[3-(trifluoromethyl)-6,7-dihydro-5H-cyclopenta[c]pyridin-6-yl]propanamide], with greater than 1000 nM; and `CC(C)N(C[C@@H](O)c1cccnc1)C(=O)Cc1cnc(C(F)(F)F)nc1` [compound 94, N-[(2S)-2-hydroxy-2-(3-pyridyl)ethyl]-N-isopropyl-2-[2-(trifluoromethyl)pyrimidin-5-yl]acetamide], with 100 to 1000 nM. The value for `CCCN(CC(O)c1cccnc1)C(=O)Cc1ccc(F)c(F)c1` (stereo not drawn) [compound 95, 2-(3,4-difluorophenyl)-N-(2-hydroxy-2-(pyridin-3-yl)ethyl)-N-propylacetamide] was 100 to 1000 nM; that for `CCCN(CC(O)c1cnccn1)C(=O)Cc1ccc(Cl)c(Cl)c1` (stereo not drawn) [compound 96] was 100 to 1000 nM; that for `CCCN(CC(O)c1cccnn1)C(=O)Cc1ccc(Cl)c(Cl)c1` (stereo not drawn) [compound 97] was no more than 100 nM.

For `CCCN(C[C@@H](O)c1cccnc1)C(=O)C1CCc2cc(Cl)c(Cl)cc2C1` (stereo partly drawn) [compound 98, 6,7-dichloro-N-[(2S)-2-hydroxy-2-(3-pyridyl)ethyl]-N-propyl-tetralin-2-carboxamide], the IC50 is no more than 100 nM. Turning to `CCCN(C[C@@H](O)c1cccnc1)C(=O)Cc1ccc(C)c(C)c1` [compound 99, 2-(3,4-dimethylphenyl)-N-[(2S)-2-hydroxy-2-(3-pyridyl)ethyl]-N-propyl-acetamide], the IC50 is 100 to 1000 nM.

Take `CCCN(C[C@@H](O)c1cccnc1)C(=O)Cc1ccc(C#N)c(Cl)c1` [compound 100, 2-(3-chloro-4-cyano-phenyl)-N-[(2S)-2-hydroxy-2-(3-pyridyl)ethyl]-N-propyl-acetamide]: the IC50 was no more than 100 nM. With `CCCN(C[C@@H](O)c1cccnc1)C(=O)c1nc2cc(Cl)c(Cl)cc2[nH]1` [compound 101, 5,6-dichloro-N-[(2S)-2-hydroxy-2-(3-pyridyl)ethyl]-N-propyl-1 H-benzimidazole-2-carboxamide], the IC50 was greater than 1000 nM. As for `CCCN(CC(O)c1ccc(OC)nc1)C(=O)Cc1ccc(Cl)c(Cl)c1` (stereo not drawn) [compound 102, 2-(3,4-dichlorophenyl)-N-[2-hydroxy-2-(6-methoxy-3-pyridyl)ethyl]-N-propyl-acetamide], the IC50 was greater than 1000 nM. As to `CCCN(CC(O)c1cncc(Br)c1)C(=O)Cc1ccc(Cl)c(Cl)c1` (stereo not drawn) [compound 103, N-[2-(5-bromo-3-pyridyl)-2-hydroxyethyl]-2-(3,4-dichlorophenyl)-N-propyl-acetamide], the IC50 was greater than 1000 nM. On to `CCCN(C[C@@H](O)c1cccnc1)C(=O)Cc1cncnc1` [compound 104, N-[(2S)-2-hydroxy-2-(3-pyridyl)ethyl]-N-propyl-2-pyrimidin-5-yl-acetamide], for which the IC50 was greater than 1000 nM. Then `CCCN(C[C@@H](O)c1cccnc1)C(=O)Cc1ccc(C(F)(F)F)c(F)c1` [compound 105, 2-[3-fluoro-4-(trifluoromethyl)phenyl]-N-[(2S)-2-hydroxy-2-(3-pyridyl)ethyl]-N-propyl-acetamide], with no more than 100 nM; and `CCCN(C[C@@H](O)c1cccnc1)C(=O)Cc1ccc(C(F)(F)F)cn1` [compound 106, N-[(2S)-2-hydroxy-2-(3-pyridyl)ethyl]-N-propyl-2-[5-(trifluoromethyl)-2-pyridyl]acetamide], with 100 to 1000 nM. Regarding `CCCN(C[C@@H](O)c1cccnc1)C(=O)N1Cc2cc(Cl)c(Cl)cc2C1` [compound 107, 5,6-dichloro-N-[(2S)-2-hydroxy-2-(3-pyridyl)ethyl]-N-propyl-isoindoline-2-carboxamide], the IC50 is no more than 100 nM. The value for `CCCN(C[C@@H](O)c1cccnc1)C(=O)Cc1ccc(F)cn1` [compound 108, 2-(5-fluoro-2-pyridyl)-N-[(2S)-2-hydroxy-2-(3-pyridyl)ethyl]-N-propyl-acetamide] was greater than 1000 nM; that for `CCCN(CC(O)c1cnccc1OC)C(=O)Cc1ccc(Cl)c(Cl)c1` (stereo not drawn) [compound 109, 2-(3,4-dichlorophenyl)-N-[2-hydroxy-2-(4-methoxy-3-pyridyl)ethyl]-N-propyl-acetamide] was no more than 100 nM; that for `CCCN(C[C@@H](O)c1cccnc1)C(=O)C1Cc2cc(F)c(F)cc2C1` [compound 110, 5,6-difluoro-N-[(2S)-2-hydroxy-2-(3-pyridyl)ethyl]-N-propyl-indane-2-carboxamide] was 100 to 1000 nM. Consider `CCCN(CC(O)c1cncc(C#N)c1)C(=O)Cc1ccc(Cl)c(Cl)c1` (stereo not drawn) [compound 111, N-[2-(5-cyano-3-pyridyl)-2-hydroxyethyl]-2-(3,4-dichlorophenyl)-N-propyl-acetamide], for which the IC50 is greater than 1000 nM. The value for `CCCN(CC(O)c1cncc(F)c1)C(=O)Cc1ccc(C(F)(F)F)nc1` (stereo not drawn) [compound 112, N-[2-(5-fluoro-3-pyridyl)-2-hydroxyethyl]-N-propyl-2-[6-(trifluoromethyl)-3-pyridyl]acetamide] was 100 to 1000 nM.
